Assay: xn = mol fraction of the nth substance listed
Conditions: 101 kPa

CCCCCCCCCCCCCC[n+]1ccccc1.O=C([O-])C(O)c1ccccc1 + C[C@H](N)C(=O)O + O
electrical conductivity [S/m]
Conditions | 293.15 K | 298.15 K | 303.15 K | 308.15 K | 313.15 K
x1 = 5.26e-06, x2 = 0.001799 | 0.00177 | 0.00202 | 0.00228 | 0.00255 | 0.00285
x1 = 6.85e-06, x2 = 0 | 0.00248 | 0.00278 | 0.00309 | 0.0034 | 0.0037
x1 = 7.23e-06, x2 = 0.0009002 | 0.00232 | 0.00263 | 0.00296 | 0.00329 | 0.0036
x1 = 1.107e-05, x2 = 0.001799 | 0.00339 | 0.00385 | 0.0043 | 0.00479 | 0.0053
x1 = 1.32e-05, x2 = 0.0009002 | 0.00408 | 0.00462 | 0.00517 | 0.0057 | 0.0063
x1 = 1.424e-05, x2 = 0 | 0.00472 | 0.00529 | 0.00587 | 0.0065 | 0.0071
x1 = 1.688e-05, x2 = 0.001799 | 0.00492 | 0.00558 | 0.00625 | 0.007 | 0.0077
x1 = 1.79e-05, x2 = 0.0009002 | 0.00545 | 0.00618 | 0.0069 | 0.0077 | 0.0084
x1 = 2.126e-05, x2 = 0 | 0.00671 | 0.0076 | 0.0084 | 0.0093 | 0.0101
x1 = 2.178e-05, x2 = 0.001799 | 0.00627 | 0.00713 | 0.008 | 0.0088 | 0.0098
x1 = 2.206e-05, x2 = 0.0009002 | 0.0066 | 0.0075 | 0.0084 | 0.0093 | 0.0102
x1 = 2.64e-05, x2 = 0.0009002 | 0.00784 | 0.0089 | 0.0099 | 0.011 | 0.0121
x1 = 2.686e-05, x2 = 0.001799 | 0.00759 | 0.0086 | 0.0097 | 0.0107 | 0.0118
x1 = 2.811e-05, x2 = 0 | 0.0086 | 0.0097 | 0.0108 | 0.0122 | 0.0131
x1 = 3.092e-05, x2 = 0.0009002 | 0.0091 | 0.0103 | 0.0115 | 0.0128 | 0.014
x1 = 3.158e-05, x2 = 0.001799 | 0.0088 | 0.01 | 0.0112 | 0.0124 | 0.0137
x1 = 3.46e-05, x2 = 0 | 0.0103 | 0.0116 | 0.0129 | 0.0145 | 0.0157
x1 = 3.653e-05, x2 = 0.0009002 | 0.0105 | 0.0119 | 0.0133 | 0.0148 | 0.0163
x1 = 3.702e-05, x2 = 0.001799 | 0.0101 | 0.0114 | 0.0128 | 0.0143 | 0.0158
x1 = 4.108e-05, x2 = 0 | 0.0117 | 0.0131 | 0.0146 | 0.0161 | 0.0179
x1 = 4.376e-05, x2 = 0.0009001 | 0.0119 | 0.0135 | 0.015 | 0.0168 | 0.0186
x1 = 4.392e-05, x2 = 0.001799 | 0.0113 | 0.0128 | 0.0143 | 0.016 | 0.0178
x1 = 4.811e-05, x2 = 0 | 0.0129 | 0.0144 | 0.0161 | 0.0179 | 0.0198
x1 = 5.045e-05, x2 = 0.0009001 | 0.0129 | 0.0146 | 0.0163 | 0.0184 | 0.0203
x1 = 5.136e-05, x2 = 0.001799 | 0.0124 | 0.0139 | 0.0156 | 0.0175 | 0.0195
x1 = 5.388e-05, x2 = 0 | 0.0137 | 0.0154 | 0.0172 | 0.0191 | 0.0211
x1 = 5.768e-05, x2 = 0.0009001 | 0.014 | 0.0158 | 0.0177 | 0.0198 | 0.022
x1 = 5.861e-05, x2 = 0.001799 | 0.0134 | 0.0151 | 0.0169 | 0.019 | 0.0211
x1 = 5.982e-05, x2 = 0 | 0.0145 | 0.0163 | 0.0182 | 0.0202 | 0.0224
x1 = 6.383e-05, x2 = 0.0009001 | 0.0148 | 0.0168 | 0.0188 | 0.021 | 0.0233
x1 = 6.559e-05, x2 = 0 | 0.0153 | 0.0172 | 0.0192 | 0.0213 | 0.0236
x1 = 6.569e-05, x2 = 0.001799 | 0.0143 | 0.0161 | 0.0181 | 0.0201 | 0.0224
x1 = 6.998e-05, x2 = 0.0009001 | 0.0157 | 0.0177 | 0.0198 | 0.0222 | 0.0246
x1 = 7.081e-05, x2 = 0 | 0.016 | 0.018 | 0.02 | 0.0223 | 0.0246
x1 = 7.222e-05, x2 = 0.001799 | 0.0151 | 0.0171 | 0.0192 | 0.0214 | 0.0236
x1 = 7.595e-05, x2 = 0.0009001 | 0.0165 | 0.0187 | 0.0209 | 0.0234 | 0.026
x1 = 7.604e-05, x2 = 0 | 0.0167 | 0.0187 | 0.0209 | 0.0232 | 0.0258
x1 = 7.839e-05, x2 = 0.001799 | 0.0159 | 0.018 | 0.0201 | 0.0225 | 0.0251
x1 = 8.072e-05, x2 = 0 | 0.0173 | 0.0194 | 0.0217 | 0.0241 | 0.0266

Source: the CheMixHub ionic liquid set
